From ChEMBL document CHEMBL5729210, “Benzodiazepine derivatives as RSV inhibitors” (2022)

Assay: RSV-A Assay: The description is Japanese.

O=C1Nc2ccccc2C(c2ccccc2)=NC1Nc1nnc(-c2ccncn2)o1 (stereo not given) and O=C1Nc2ccccc2C(c2ccccc2)=NC1Nc1nnc(-c2cnccn2)o1 (stereo not given) cannot be ordered by EC50: greater than 800 nM for the first, greater than 800 nM for the second.

Cc1ccc(-c2nnc(NC3N=C(c4ccccc4)c4ccccc4NC3=O)o2)o1 (stereo not given) and O=C1Nc2ccccc2C(c2ccccc2)=NC1Nc1nnc(-c2ccc(Cl)o2)o1 (stereo not given) cannot be ordered by EC50: greater than 800 nM for the first, greater than 800 nM for the second.

O=C1Nc2ccccc2C(c2ccccc2)=NC1Nc1nnc(-c2ccc(F)cc2F)o1 (stereo not given) and O=C1Nc2ccccc2C(c2ccccc2)=NC1Nc1nnc(-c2ccccc2F)o1 (stereo not given) cannot be ordered by EC50: greater than 800 nM for the first, greater than 800 nM for the second.

CS(=O)(=O)c1ccc(-c2nnc(NC3N=C(c4ccccc4)c4ccccc4NC3=O)o2)cc1 (stereo not given) and O=C1Nc2ccccc2C(c2ccccc2)=N[C@H]1Nc1nnc(-c2ccc(F)cc2)o1 cannot be ordered by EC50: greater than 800 nM for the first, greater than 800 nM for the second.

O=C1Nc2ccccc2C(c2ccccc2)=NC1Nc1nc(Cl)ns1 (stereo not given) and O=C1Nc2ccccc2C(c2ccccc2)=NC1Nc1nc(-c2ccccc2)ns1 (stereo not given) cannot be ordered by EC50: greater than 800 nM for the first, greater than 800 nM for the second.

O=C1Nc2ccccc2C(c2ccccc2)=NC1Nc1nnc(-c2cccc(F)c2)o1 (stereo not given) and COc1cccc(-c2nnc(NC3N=C(c4ccccc4)c4ccccc4NC3=O)o2)c1 (stereo not given) cannot be ordered by EC50: greater than 800 nM for the first, greater than 800 nM for the second.

CN1CCc2nc(-c3nnc(NC4N=C(c5ccccc5)c5ccccc5NC4=O)o3)sc2C1 (stereo not given) and Cc1ccc(-c2nnc(NC3N=C(c4ccccc4)c4ccccc4NC3=O)o2)s1 (stereo not given) cannot be ordered by EC50: greater than 800 nM for the first, greater than 800 nM for the second.

O=C1Nc2ccccc2C(c2ccccc2)=NC1Nc1nnc(Cc2ccccc2)o1 (stereo not given) and O=C1Nc2ccccc2C(c2ccccc2)=NC1Nc1nnc(-c2ccccc2)o1 (stereo not given) cannot be ordered by EC50: greater than 800 nM for the first, greater than 800 nM for the second.

O=C1Nc2ccccc2C(c2ccccc2)=NC1Nc1nnc(-c2cccc3ccccc23)o1 (stereo not given) and COc1ccccc1-c1nnc(NC2N=C(c3ccccc3)c3ccccc3NC2=O)o1 (stereo not given) cannot be ordered by EC50: greater than 800 nM for the first, greater than 800 nM for the second.

CC(=O)N1CCC(c2nnc(NC3N=C(c4ccccc4)c4ccccc4NC3=O)o2)CC1 (stereo not given) and CN1CCC(c2nnc(NC3N=C(c4ccccc4)c4ccccc4NC3=O)o2)CC1 (stereo not given) cannot be ordered by EC50: greater than 800 nM for the first, greater than 800 nM for the second.

O=c1c(Br)cccn1Cc1ccccc1 and O=C1Nc2ccccc2C(c2ccccc2)=NC1Nc1nnco1 (stereo not given) cannot be ordered by EC50: greater than 800 nM for the first, greater than 800 nM for the second.

O=C1Nc2ccccc2C(c2ccccc2)=NC1Nc1nnc(-c2ncccn2)o1 (stereo not given) and O=C1Nc2ccccc2C(c2ccccc2)=NC1Nc1nnc(-c2cccnn2)o1 (stereo not given) cannot be ordered by EC50: greater than 800 nM for the first, greater than 800 nM for the second.

O=C1Nc2ccccc2C(c2ccccc2)=NC1Nc1nnc(-c2ccc(F)cc2)s1 (stereo not given) and O=C1Nc2ccccc2C(c2ccccc2)=NC1Nc1nnc(-c2ccncc2)s1 (stereo not given) cannot be ordered by EC50: greater than 800 nM for the first, greater than 800 nM for the second.

O=C1Nc2ccccc2C(c2ccccc2)=NC1Nc1ncc(-c2ccccc2)o1 (stereo not given) and O=C1Nc2ccccc2C(c2ccccc2)=NC1Nc1nc(-c2ccccc2)no1 (stereo not given) cannot be ordered by EC50: greater than 800 nM for the first, greater than 800 nM for the second.

Compared with COc1cc(-c2nnc(NC3N=C(c4ccccc4)c4ccccc4NC3=O)o2)ccn1 (stereo not given), O=C1Nc2ccccc2C(c2ccccc2)=NC1Nc1nnc(-c2ccnc(F)c2)o1 (stereo not given) is lower in EC50: greater than 800 nM for the first, less than 400 nM for the second.

Cc1nnc(NC2N=C(c3ccccc3)c3ccccc3NC2=O)o1 (stereo not given) and O=C1Nc2ccccc2C(c2ccccc2)=NC1Nc1nnc(C2CC2)o1 (stereo not given) cannot be ordered by EC50: greater than 800 nM for the first, greater than 800 nM for the second.

O=C1Nc2ccccc2C(c2ccccc2)=NC1Nc1nnc(-c2cncs2)o1 (stereo not given) and O=C1Nc2ccccc2C(c2ccccc2)=NC1Nc1nnc(-c2cnco2)o1 (stereo not given) cannot be ordered by EC50: greater than 800 nM for the first, greater than 800 nM for the second.

O=C1Nc2ccccc2C(c2ccccc2)=NC1Nc1nnc(-c2cncnc2)o1 (stereo not given) and O=C1Nc2ccccc2C(c2ccccc2)=NC1Nc1nnc(-c2cccnc2)o1 (stereo not given) cannot be ordered by EC50: greater than 800 nM for the first, greater than 800 nM for the second.

Compared with Cc1cccc(-c2nnc(NC3N=C(c4ccccc4)c4ccccc4NC3=O)o2)n1 (stereo not given), COc1cccc(-c2nnc(NC3N=C(c4ccccc4)c4ccccc4NC3=O)o2)n1 (stereo not given) is lower in EC50: greater than 800 nM for the first, less than 400 nM for the second. The second is the more potent here.

O=C1Nc2ccccc2C(c2ccccc2)=NC1Nc1nc(-c2ccccc2)cs1 (stereo not given) and O=C1Nc2ccccc2C(c2ccccc2)=NC1Nc1ncc(-c2ccccc2)s1 (stereo not given) cannot be ordered by EC50: greater than 800 nM for the first, greater than 800 nM for the second.

O=C1Nc2ccccc2C(c2ccccc2)=NC1Nc1nnc(-c2ccccc2)[nH]1 (stereo not given) and O=C1Nc2ccccc2C(c2ccccc2)=NC1Nc1nnc(-c2ccccc2)s1 (stereo not given) cannot be ordered by EC50: greater than 800 nM for the first, greater than 800 nM for the second.

CN(C)Cc1ccc(-c2nnc(NC3N=C(c4ccccc4)c4ccccc4NC3=O)o2)o1 (stereo not given) and COCc1ccc(-c2nnc(NC3N=C(c4ccccc4)c4ccccc4NC3=O)o2)o1 (stereo not given) cannot be ordered by EC50: greater than 800 nM for the first, greater than 800 nM for the second.

O=C1Nc2ccccc2C(c2ccccc2)=NC1Nc1cc(Oc2ccccc2)ncn1 (stereo not given) and O=C1Nc2ccccc2C(c2ccccc2)=NC1Nc1cc(-c2ccccc2)ncn1 (stereo not given) cannot be ordered by EC50: greater than 800 nM for the first, greater than 800 nM for the second.

O=C1Nc2ccccc2C(c2ccccc2)=NC1Nc1ccnc(-c2ccccc2)n1 (stereo not given) and O=C1Nc2ccccc2C(c2ccccc2)=NC1Nc1ncc2ccccc2n1 (stereo not given) cannot be ordered by EC50: greater than 800 nM for the first, greater than 800 nM for the second.

O=C1Nc2ccccc2C(c2ccccc2)=NC1Nc1nc2ccccc2o1 (stereo not given) and O=C1Nc2ccccc2C(c2ccccc2)=NC1Nc1nc2ccc(Cl)cc2o1 (stereo not given) cannot be ordered by EC50: greater than 800 nM for the first, greater than 800 nM for the second.

Cn1ccnc1-c1nnc(NC2N=C(c3ccccc3)c3ccccc3NC2=O)o1 (stereo not given) and Cn1cnc(-c2nnc(NC3N=C(c4ccccc4)c4ccccc4NC3=O)o2)c1 (stereo not given) cannot be ordered by EC50: greater than 800 nM for the first, greater than 800 nM for the second.

Going from COc1cc(-c2nnc(NC3N=C(c4ccccc4)c4ccccc4NC3=O)o2)ccc1F (stereo not given) to N#Cc1ccc(-c2nnc(NC3N=C(c4ccccc4)c4ccccc4NC3=O)o2)cc1F (stereo not given), the EC50 rises from less than 400 nM to greater than 800 nM. The first is the more potent here.

First: O=C1Nc2ccccc2C(c2ccccc2)=NC1Nc1nnc(-c2ccc(Cl)cc2)o1 (stereo not given)
Second: COc1ccc(-c2nnc(NC3N=C(c4ccccc4)c4ccccc4NC3=O)o2)cc1 (stereo not given)
The EC50 of the first is lower: less than 400 nM for the first, greater than 800 nM for the second. The first is the more potent here.

CCOC(=O)c1nnc(NC2N=C(c3ccccc3)c3ccccc3NC2=O)o1 (stereo not given) and Cc1cc(-c2nnc(NC3N=C(c4ccccc4)c4ccccc4NC3=O)o2)on1 (stereo not given) cannot be ordered by EC50: greater than 800 nM for the first, greater than 800 nM for the second.

O=C1Nc2ccccc2C(c2ccccc2)=NC1Nc1nnc(-c2cccc(C(F)(F)F)c2)o1 (stereo not given) and O=C1Nc2ccccc2C(c2ccccc2)=NC1Nc1nnc(-c2ccc(C(F)(F)F)cc2)o1 (stereo not given) cannot be ordered by EC50: greater than 800 nM for the first, greater than 800 nM for the second.

N#Cc1cccc(-c2nnc(NC3N=C(c4ccccc4)c4ccccc4NC3=O)o2)c1 (stereo not given) and N#Cc1cc(-c2nnc(NC3N=C(c4ccccc4)c4ccccc4NC3=O)o2)ccn1 (stereo not given) cannot be ordered by EC50: greater than 800 nM for the first, greater than 800 nM for the second.

O=C1Nc2ccccc2C(c2ccccc2)=NC1Nc1nnc(-c2ccc(=O)[nH]c2)o1 (stereo not given) and O=C1Nc2ccccc2C(c2ccccc2)=NC1Nc1nnc(-c2cc[nH]c(=O)c2)o1 (stereo not given) cannot be ordered by EC50: greater than 800 nM for the first, greater than 800 nM for the second.

First: COc1ccc(-c2nnc(NC3N=C(c4ccccc4)c4ccccc4NC3=O)o2)cn1 (stereo not given)
Second: COc1ccnc(-c2nnc(NC3N=C(c4ccccc4)c4ccccc4NC3=O)o2)c1 (stereo not given)
The EC50 of the first is lower: less than 400 nM for the first, greater than 800 nM for the second.

O=C1Nc2ccccc2C(c2ccccc2)=NC1Nc1nnc(-c2ccc(F)cn2)o1 (stereo not given) and O=C1Nc2ccccc2C(c2ccccc2)=NC1Nc1nnc(-c2ccc(C(F)(F)F)cn2)o1 (stereo not given) cannot be ordered by EC50: greater than 800 nM for the first, greater than 800 nM for the second.

O=C1Nc2ccccc2C(c2ccccc2)=NC1Nc1nnc(-c2ncco2)o1 (stereo not given) and O=C1Nc2ccccc2C(c2ccccc2)=N[C@H]1Nc1nnc(-c2ccco2)o1 cannot be ordered by EC50: greater than 800 nM for the first, greater than 800 nM for the second.

O=C1Nc2ccccc2C(c2ccccc2)=NC1Nc1nnc(C2CCOCC2)o1 (stereo not given) and O=C1Nc2ccccc2C(c2ccccc2)=NC1Nc1nnc(C2CCNCC2)o1 (stereo not given) cannot be ordered by EC50: greater than 800 nM for the first, greater than 800 nM for the second.

O=C1Nc2ccccc2C(c2ccccc2)=NC1Nc1nnc(-c2cc3cccnc3s2)o1 (stereo not given) and O=C1Nc2ccccc2C(c2ccccc2)=NC1Nc1nnc(-c2nccs2)o1 (stereo not given) cannot be ordered by EC50: greater than 800 nM for the first, greater than 800 nM for the second.

O=C1Nc2ccccc2C(c2ccccc2)=NC1Nc1cc(N2CCOCC2)ncn1 (stereo not given) and O=C1Nc2ccccc2C(c2ccccc2)=NC1Nc1nnc([C@@H]2COCCN2)o1 (stereo not given in full) cannot be ordered by EC50: greater than 800 nM for the first, greater than 800 nM for the second.

Cn1nccc1-c1nnc(NC2N=C(c3ccccc3)c3ccccc3NC2=O)o1 (stereo not given) and COCc1cccc(-c2nnc(NC3N=C(c4ccccc4)c4ccccc4NC3=O)o2)n1 (stereo not given) cannot be ordered by EC50: greater than 800 nM for the first, greater than 800 nM for the second.

O=C1Nc2ccccc2C(c2ccccc2)=NC1Nc1nnc(-c2ccc(OC(F)(F)F)cc2)o1 (stereo not given) and O=C1Nc2ccccc2C(c2ccccc2)=NC1Nc1nnc([C@H]2COCCN2)o1 (stereo not given in full) cannot be ordered by EC50: greater than 800 nM for the first, greater than 800 nM for the second.

For COc1ccc(CN2C(=O)C(NC(=S)NC(=O)c3ccccc3)N=C(c3ccccc3)c3ccccc32)cc1 (stereo not given), the EC50 was greater than 800 nM.

For N#Cc1cc(-c2nnc(NC3N=C(c4ccccc4)c4ccccc4NC3=O)o2)ccc1F (stereo not given), the EC50 was “in the range around 600 nM”.
In the case of Cn1cc(-c2nnc(NC3N=C(c4ccccc4)c4ccccc4NC3=O)o2)cn1 (stereo not given), the EC50 is reported as “in the range around 600 nM”.
With O=C1Nc2ccccc2C(c2ccccc2)=N[C@@H]1Nc1nnc(-c2ccco2)o1 the EC50 was “in the range around 600 nM”.
For COc1ccc(CN2C(=O)C(Nc3ccc(-c4ccccc4)nn3)N=C(c3ccccc3)c3ccccc32)cc1 (stereo not given), the EC50 was “in the range around 600 nM”.
In the case of O=C1Nc2ccccc2C(c2ccccc2)=NC1Nc1nnc(-c2cscn2)o1 (stereo not given), the EC50 is reported as “in the range around 600 nM”.
With N#Cc1ccc(-c2nnc(NC3N=C(c4ccccc4)c4ccccc4NC3=O)o2)nc1 (stereo not given) the EC50 was “in the range around 600 nM”.
With O=C1Nc2ccccc2C(c2ccccc2)=NC1Nc1nnc(-c2ccc3ccccc3c2)o1 (stereo not given) the EC50 was “in the range around 600 nM”.
With O=C1Nc2ccccc2C(c2ccccc2)=NC1Nc1nnc(-c2ccc3nc[nH]c3c2)o1 (stereo not given) the EC50 was > 800 nM and in the range around 600 nM.
For N#Cc1ccc(-c2nnc(NC3N=C(c4ccccc4)c4ccccc4NC3=O)s2)cc1 (stereo not given), the EC50 was “in the range around 600 nM”.
For NS(=O)(=O)c1ccc(-c2nnc(NC3N=C(c4ccccc4)c4ccccc4NC3=O)o2)cc1 (stereo not given), the EC50 was “in the range around 600 nM”.
For O=C1Nc2ccccc2C(c2ccccc2)=N[C@@H]1Nc1nnc(-c2ccc(F)cc2)o1, the EC50 was “in the range around 600 nM”.
In the case of Cc1cc(-c2nnc(NC3N=C(c4ccccc4)c4ccccc4NC3=O)o2)ccc1C#N (stereo not given), the EC50 is reported as “in the range around 600 nM”.
For O=C1Nc2ccccc2C(c2ccccc2)=NC1Nc1nnc(-c2ccccn2)o1 (stereo not given), the EC50 was “in the range around 600 nM”.
With N#Cc1ccc(-c2nnc(NC3N=C(c4ccccc4)c4ccccc4NC3=O)o2)cc1 (stereo not given) the EC50 was “in the range around 600 nM”.
With CC(C)Oc1cccc(-c2nnc(NC3N=C(c4ccccc4)c4ccccc4NC3=O)o2)c1 (stereo not given) the EC50 was “in the range around 600 nM”.
In the case of O=C1Nc2ccccc2C(c2ccccc2)=NC1Nc1nnc(-c2ccc(F)nc2)o1 (stereo not given), the EC50 is reported as “in the range around 600 nM”.
For O=C1Nc2ccccc2C(c2ccccc2)=NC1Nc1nnc(-c2ccc(-n3cccn3)cc2)o1 (stereo not given), the EC50 was “in the range around 600 nM”.
In the case of O=C1Nc2ccccc2C(c2ccccc2)=NC1Nc1nnc(-c2ccncc2)o1 (stereo not given), the EC50 is reported as “in the range around 600 nM”.
In the case of COc1ccc(-c2nnc(NC3N=C(c4ccccc4)c4ccccc4NC3=O)o2)nc1 (stereo not given), the EC50 is reported as “in the range around 600 nM”.
